# Laboratory results reported in patent US20200316092A1, “METHODS OF DIAGNOSIS AND TREATMENT OF LIVER DISEASES USING OBETICHOLIC ACID” (Intercept Pharmaceuticals, Inc., priority 2019, published 2020).
# Entries after “also recorded” stand apart in the source; their conditions may differ.
# Columns and labels:
# Assay type in all cases: in vivo, human
# [1] = system: subjects with nonalcoholic steatohepatitis with fibrosis; test: Phase 1 placebo-controlled study: safety and tolerability (TEAE incidence); conditions: for Total Number of TEAEs: 85 days; for Total Number of TEAEs / Any Serious TEAE / Constipation (TEAE incidence) / Diabetes mellitus (TEAE) / Fatigue (TEAE incidence) / Headache (TEAE incidence) / Hepatobiliary disorders (SOC) (TEAE) / Hypercholesterolemia (TEAE) / LDL Increased, Mild (maximum severity) / LDL Increased, Moderate (maximum severity) / LDL Increased, Severe (maximum severity) / Low density lipoprotein increased (TEAE incidence) / Nausea (TEAE incidence) / Pneumonia (TEAE incidence) / Pruritis (TEAE incidence) / Pruritus, Mild (maximum severity) / Pruritus, Moderate (maximum severity) / Pruritus, Severe (maximum severity) / Subjects with at least one TEAE: n = 20
# Source text: Example 1: A Phase 1, Double-Blind, Randomized, Placebo-Controlled Study to Evaluate Safety, Pharmacokinetics, and Pharmacodynamics of Obeticholic Acid in Subjects with Nonalcoholic Steatohepatitis with Fibrosis
# (§1) The primary objectives of this study are to evaluate the safety and tolerability of OCA treatment in subjects with NASH with fibrosis and to evaluate single- and multiple-dose pharmacokinetics of OCA, its conjugates, and metabolites in subjects with NASH with fibrosis.
# The study comprised three treatment groups-10 mg QD, 25 mg QD and Placebo QD.
# [2] = Phase 1 study: plasma pharmacokinetics of total OCA; conditions: 10 mg QD or 25 mg QD
# Source text: as §1
# Furthermore, although there were a limited number of subjects having a fibrosis score of F4, plasma exposure was lower in these subjects as compared to the subjects with a fibrosis score of F1 or F2/F3.
# FXR activation = test: Phase 1 study: pharmacodynamic markers of FXR activation (C4, bile acids, FGF-19); conditions: Day 85 compared to baseline
# Source text: (§2) The secondary objectives of this study are to evaluate the pharmacodynamics of OCA on FXR activation and to evaluate liver chemistries and the pharmacodynamics of OCA on biomarkers of NASH, including inflammation, apoptosis, and oxidation stress.
# Furthermore, plasma bile acids were suppressed by administration of OCA, but no dose response was observed.
# [3] = system: subjects with nonalcoholic steatohepatitis with fibrosis; test: Phase 1 study: liver chemistries (ALT, AST, GGT, bilirubin, ALP); conditions: Day 85 compared to baseline
# Source text: as §2
# [4] = Phase 1 study: liver exposure of OCA and its conjugates
# [5] = system: liver function of NASH subjects; test: HepQuant-SHUNT test: disease severity index (DSI) score
# Source text: The HepQuant®-SHUNT test uses simultaneous orally administered d4-cholate and intravenously administered 13C-cholate (i.e. intravenous (24-^13C cholate) and oral (2,2,4,4-^2H cholate) together with mass spectrometry analysis of five serum samples from the subject to accurately measure liver function and generate a disease severity index (DSI) score. HepQuant®-STAT is a simpler test that uses only orally administered d4-cholate and a single serum sample from the subject to estimate liver function (STAT).
# Briefly, the HepQuant®-SHUNT test allows for simultaneous measurement of the perfusion/uptake from portal circulation and perfusion/uptake from systemic circulation, as shown in FIGS. 1 and 2. In a HepQuant®-SHUNT test, a subject is orally administered 40 mg of d4-cholate and intravenously administered 20 mg of 13C-cholate. Blood samples are then isolated from the subject at 5, 20, 45, 60 and 90 minutes after cholate administration. For each sample, mass spectrometry is used to determine the Portal Hepatic Filtration Rate (Portal HFR) and Systemic Hepatic Filtration Rate (Systemic HFR). The Portal HFR is defined as the clearance of 4D-cholate (dose AUC^−1 kg body weight^−1, typically mL mini kg^−1) and the Systemic HFR is defined as the clearance of 13C-cholate (dose AUC^−1 kg body weight^−1, typically mL min^−1 kg^−1). The Portal HFR and Systemic HFR can then be used to calculate a Disease Severity Index (DSI) score. The DSI can be used to determine the extent of liver function, and therefore the extent of liver damage/disease in the subject. Thus, the DSI score can be used to diagnose a subject with a disease. For example, a DSI greater than 16.5 can indicate that the subject will likely have biopsy-proven NASH. A DSI score can also be used to determine the percent likelihood of endoscopic finding of varices in subjects with NASH or hepatitis C virus infection, as shown in FIG. 3. DSI scores can also be measured multiple times during a course of treatment described herein (a treatment regimen) to determine the efficacy of the course of treatment. For example, a baseline DSI score can be measured by performing a HepQuant®-SHUNT test prior to the start of the treatment regimen (i.e. prior to the first administration of the treatment regimen) and then a second DSI score can be measured at a time point during the treatment regimen. The first and second DSI scores can compared to determine a DSI difference score. For example, a reduction in DSI score from the baseline measurement can indicate that the course of treatment is beneficial as the subject's liver function is improving. Depending on the DSI difference score, the treatment regimen can be adjusted, continued or discontinued.
# In some aspects, a DSI difference score that is greater than or equal to 2 (i.e. a decrease in the DSI scores of 2 or more over the course of treatment) is considered to be clinically meaningful, based on reducing the probability of any varices from approximately 30% to 20% for subjects with a baseline DSI of 20.
# As part of the HepQuant®-SHUNT test, labeled cholate was administered intravenously and orally. The HepQuant®-SHUNT tests were used to determine disease severity index (DSI) scores.
compound,measurement,setting,value
"CC[C@H]1[C@@H](O)[C@@H]2[C@H](CC[C@]3(C)[C@@H]([C@H](C)CCC(=O)O)CC[C@@H]23)[C@@]2(C)CC[C@@H](O)C[C@@H]12 [OCA, 3α,7α-dihydroxy-6α-ethyl-5β-cholan-24-oic acid]",TEAEs leading to study discontinuation,[1]; 10 mg QD and 25 mg QD for 12 weeks,no TEAEs leading to study discontinuation
same,safety and tolerability,"[1]; 10 mg QD and 25 mg QD for 12 weeks, NASH subjects with fibrosis",generally safe and well tolerated
same,Total Number of TEAEs,[1]; OCA 10 mg QD,29
same,Any Serious TEAE,[1]; OCA 10 mg QD,0 n (%)
same,Constipation (TEAE incidence),[1]; OCA 10 mg QD,2 (10%) n (%)
same,Diabetes mellitus (TEAE),[1]; OCA 10 mg QD,1 (5%) n (%)
same,Fatigue (TEAE incidence),[1]; OCA 10 mg QD,2 (10%) n (%)
same,Headache (TEAE incidence),[1]; OCA 10 mg QD,0 n (%)
same,Hepatobiliary disorders (SOC) (TEAE),[1]; OCA 10 mg QD,0 n (%)
same,Hypercholesterolemia (TEAE),[1]; OCA 10 mg QD,0 n (%)
same,"LDL Increased, Mild (maximum severity)",[1]; OCA 10 mg QD,2 (10%) n (%)
same,"LDL Increased, Moderate (maximum severity)",[1]; OCA 10 mg QD,0 n (%)
same,"LDL Increased, Severe (maximum severity)",[1]; OCA 10 mg QD,0 n (%)
same,Low density lipoprotein increased (TEAE incidence),[1]; OCA 10 mg QD,2 (10%) n (%)
same,Nausea (TEAE incidence),[1]; OCA 10 mg QD,0 n (%)
same,Pneumonia (TEAE incidence),[1]; OCA 10 mg QD,0 n (%)
same,Pruritis (TEAE incidence),[1]; OCA 10 mg QD,3 (15%) n (%)
same,"Pruritus, Mild (maximum severity)",[1]; OCA 10 mg QD,3 (15%) n (%)
same,"Pruritus, Moderate (maximum severity)",[1]; OCA 10 mg QD,0 n (%)
same,"Pruritus, Severe (maximum severity)",[1]; OCA 10 mg QD,0 n (%)
same,Subjects with at least one TEAE,[1]; OCA 10 mg QD,12 (60%) n (%)
same,Total Number of TEAEs,[1]; OCA 25 mg QD,36
same,Any Serious TEAE,[1]; OCA 25 mg QD,0 n (%)
same,Constipation (TEAE incidence),[1]; OCA 25 mg QD,2 (10%) n (%)
same,Diabetes mellitus (TEAE),[1]; OCA 25 mg QD,0 n (%)
same,Fatigue (TEAE incidence),[1]; OCA 25 mg QD,3 (15%) n (%)
same,Headache (TEAE incidence),[1]; OCA 25 mg QD,0 n (%)
same,Hepatobiliary disorders (SOC) (TEAE),[1]; OCA 25 mg QD,0 n (%)
same,Hypercholesterolemia (TEAE),[1]; OCA 25 mg QD,1 (5%) n (%)
same,"LDL Increased, Mild (maximum severity)",[1]; OCA 25 mg QD,1 (5%) n (%)
same,"LDL Increased, Moderate (maximum severity)",[1]; OCA 25 mg QD,1 (5%) n (%)
same,"LDL Increased, Severe (maximum severity)",[1]; OCA 25 mg QD,0 n (%)
same,Low density lipoprotein increased (TEAE incidence),[1]; OCA 25 mg QD,2 (10%) n (%)
same,Nausea (TEAE incidence),[1]; OCA 25 mg QD,0 n (%)
same,Pneumonia (TEAE incidence),[1]; OCA 25 mg QD,2 (10%) n (%)
same,Pruritis (TEAE incidence),[1]; OCA 25 mg QD,5 (25%) n (%)
same,"Pruritus, Mild (maximum severity)",[1]; OCA 25 mg QD,2 (10%) n (%)
same,"Pruritus, Moderate (maximum severity)",[1]; OCA 25 mg QD,3 (15%) n (%)
same,"Pruritus, Severe (maximum severity)",[1]; OCA 25 mg QD,0 n (%)
same,Subjects with at least one TEAE,[1]; OCA 25 mg QD,15 (75%) n (%)
same,LDL cholesterol,"[1]; OCA treatment groups (10 mg QD, 25 mg QD)",increase in LDL cholesterol
same,"plasma exposure of OCA, NASH subjects vs healthy subjects",[2]; day 1 and day 85,modestly higher in NASH subjects
same,plasma exposure in F4 subjects compared to F1 or F2/F3,[2]; limited number of F4 subjects,lower
same,"FGF-19 levels, percent change from baseline",FXR activation,increased with OCA dose
same,"C4 levels, percent change from baseline",FXR activation; no dose response,suppressed
same,"plasma bile acids, percent change from baseline",FXR activation; no dose response,suppressed
same,"ALP levels, change from baseline",[3],dose dependent increase
same,"biochemistry markers of hepatic cytotoxicity and dysfunction (ALT, AST, GGT, total bilirubin, direct bilirubin)",[3]; no dose-dependent response,suppressed
same,liver exposure of OCA across fibrosis scores,"[4]; 10 mg QD, F1 or F2/F3",generally similar across subjects with different fibrosis scores
same,liver exposure of OCA across fibrosis scores,"[4]; 25 mg QD, F1, F2/F3 or F4",generally similar across subjects with different fibrosis scores
same,liver exposure of OCA across fibrosis scores after normalization by dose,"[4]; F1, F2/F3 or F4",generally similar across subjects with different fibrosis scores
same,reduction in DSI,"[5]; 10 mg QD or 25 mg QD, Day 85, greater response at 25 mg QD",dose-dependent and clinically meaningful reduction; also recorded: dose-dependent response
same,subjects treated with OCA among the 18 subjects with clinically relevant ΔDSI of at least −2,"[5]; F1, F2/F3 or F4, 10 mg QD or 25 mg QD, Day 85",17 subjects
same,"Responders (≥2 point decrease in DSI), %","[5]; F1, OCA 10 mg QD, Day 85, n = 3",(67) %
same,"Responders (≥2 point decrease in DSI), %","[5]; F1, OCA 25 mg QD, Day 85, n = 5",(20) %
same,change in DSI score (Day 85−Baseline) vs placebo,"[5]; F2/F3 NASH subjects, greatest effect at 25 mg QD",greater improvement in DSI score
same,"Responders (≥2 point decrease in DSI), %","[5]; F4, OCA 10 mg QD, Day 85, n = 2",(50) %
same,"Responders (≥2 point decrease in DSI), %","[5]; F4, OCA 25 mg QD, Day 85, n = 1",(100) %
